# Measurements reported in publication PMC7822874, “Chemoprotective antimalarials identified through quantitative high-throughput screening of Plasmodium blood and liver stage parasites” (Scientific Reports, 2021).
# Where “and” joins values, the source holds several entries; their conditions need not be identical. Equal entries are not always repeated.
# Columns and labels:
# in vitro = conditions: human, HepG2 cells; n = 1
# [1] = test system: P. falciparum Dd2 (clone B2) asexual blood stage parasites; experiment: P. falciparum Dd2 asexual blood stage SYBR Green-I 72 h proliferation assay (qHTS); format: cell-based, Plasmodium falciparum; conditions: Plasmodium falciparum, DD2, Dd2 parental; Hill fit, averaged from three independent replicates; top concentration 29 µM; read-out: Average AC50 (Log[M]), Dd2 (converted)
# [2] = test system: P. falciparum Dd2 Cytb G131S; experiment: SYBR Green ABS proliferation assay, NCGC00374598 selected clone C11; format: cell-based, Plasmodium falciparum; conditions: Plasmodium falciparum, DD2, […]; averaged from three independent replicates; top concentration 29 µM; read-out: Average AC50 (Log[M]), NCGC00374598 clone C11 (Cytb G131S) (converted)
# Method in brief: (§1)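 72 h SYBR Green-I read; % response = relative growth vs controls. Clones from resistance selection, cloned by limiting dilution; 37 °C, 5% CO2/5% O2/90% N2.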
# [3] = test system: P. falciparum Dd2 Cytb V259L; experiment: SYBR Green ABS proliferation assay, NCGC00473217 selected clone F06; format: cell-based, Plasmodium falciparum; conditions: Plasmodium falciparum, DD2, […]; averaged from three independent replicates; top concentration 29 µM; read-out: Average AC50 (Log[M]), NCGC00473217 clone F06 (Cytb V259L) (converted)
# Method in brief: as §1
# [4] = test system: P. falciparum Dd2 Cytb A122D; experiment: SYBR Green ABS proliferation assay, NCGC00473217 selected clone F12; format: cell-based, Plasmodium falciparum; conditions: Plasmodium falciparum, DD2, […]; averaged from three independent replicates; top concentration 29 µM; read-out: Average AC50 (Log[M]), NCGC00473217 clone F12 (Cytb A122D) (converted)
# Method in brief: as §1
# [5] = test system: P. falciparum Dd2 Cytb F123L; experiment: SYBR Green ABS proliferation assay, NCGC00473217 selected clone G08; format: cell-based, Plasmodium falciparum; conditions: Plasmodium falciparum, DD2, […]; averaged from three independent replicates; top concentration 29 µM; read-out: Average AC50 (Log[M]), NCGC00473217 clone G08 (Cytb F123L) (converted)
# Method in brief: as §1
# [6] = test system: T1, Plasmodium falciparum Dd2-attB (parental line), asexual blood stages; experiment: microbe, parasite or virus in culture; design: replicate k of 3 (each line is one of three independent assays; the three lines of one compound and parasite line follow each other); conditions: 72 h; n = 1
# T1 construct: Dd2-attB, the isogenic parental line
# Method in brief: (§2)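 Three independent runs, compound subset only; parental vs ScDHODH line compared by two-sided Student's t-test.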
# [7] = test system: T2, Plasmodium falciparum Dd2-attB-ScDHODH (transgenic line expressing yeast DHODH), asexual blood stages; experiment: organism not typed; design: replicate k of 3 (each line is one of three independent assays; the three lines of one compound and parasite line follow each other); conditions: 72 h, n = 1
# T2 construct: Dd2-attB-ScDHODH, the transgenic line that expresses yeast DHODH
# Method in brief: as §2
SMILES,CC50 at 48 h (in vitro),AC50 [1],AC50 [2],AC50 [3],AC50 [4],AC50 [5],Individual replicates / Log AC50 (M) [6],Individual replicates / Log AC50 (M) [7],AC50 ([7]; read-out: Individual replicates / Log AC50 (converted))
CCn1c(C)nc2cc(-c3nc4n(n3)Cc3ccccc3-4)ccc21 [MLS000054270-01],12.2 µM,,,,,,,,
COc1cc(C(=O)N/N=C(/c2ccccc2)c2ccccn2)cc(OC)c1OC [MLS000390992-01],10.9 µM,,,,,,,,
CC1=CC(=CNNC(=O)c2n[nH]cc2Br)C(=O)C=C1 [MLS000555044-01],19.3 µM,,,,,,,,
Cc1cc(NCc2ccccn2)n2nc(C)c(-c3ccc(Cl)cc3)c2n1 [MLS000559839-01],9.68 µM,,,,,,,,
COc1ccc(Nc2nc(N3CCCCC3)c3ccccc3n2)cc1 [MLS000569818-01],30.6 µM,,,,,,,,
COc1cnc(-c2ccccn2)nc1Sc1ccccc1 [MLS000692209-01],24.3 µM,,,,,,,,
CCCN1C(CC(C)C)=N[S+](=O)([O-])c2cc(NC(=O)c3ccco3)ccc21 [NCGC00473219-02],,3.17e-06 M,3.17e-06 M,5.22e-06 M,3.56e-06 M,3.17e-06 M,-6.2986 Log AC50 (M) and -5.9986 Log AC50 (M) and -6.0986 Log AC50 (M),-5.7486 Log AC50 (M) and -5.5986 Log AC50 (M) and -5.8986 Log AC50 (M),
CCCN1C(CC(C)C)=N[S+](=O)([O-])c2cc(NC(=O)c3ccc(C)o3)ccc21 [NCGC00510048-01],,9.66e-06 M,7.38e-06 M,7.38e-06 M,7.96e-06 M,6.58e-06 M,-5.5486 Log AC50 (M) and -5.3486 Log AC50 (M) and -5.1986 Log AC50 (M),-5.1486 Log AC50 (M),7.1 µM
CCCN1C(CC(C)C)=N[S+](=O)([O-])c2cc(NC(=O)c3ccc(-c4ccccc4)s3)ccc21 [NCGC00521113-01],,5.02e-06 M,1.68e-06 M,1.42e-06 M,5.02e-06 M,2.24e-06 M,,,
CCCN1C(CC(C)C)=N[S+](=O)([O-])c2cc(NC(=O)c3cc4cccnc4s3)ccc21 [NCGC00521132-01],,6.7e-06 M,2.82e-06 M,2.99e-06 M,2.99e-06 M,8.93e-06 M,,,
CCCN1C(CC(C)C)=N[S+](=O)([O-])c2cc(NC(=O)c3ccccn3)ccc21 [NCGC00521133-01],,9.29e-06 M,1.04e-06 M,7.67e-06 M,1.89e-06 M,1.04e-05 M,,,
CCCN1C(CC(C)C)=N[S+](=O)([O-])c2cc(NC(=O)c3cncnc3)ccc21 [NCGC00521134-01],,8.93e-06 M,4.48e-06 M,1.59e-06 M,3.77e-06 M,4.48e-06 M,,,
CCCN1C(CC(C)C)=N[S+](=O)([O-])c2cc(NC(=O)c3cnn4cccnc34)ccc21 [NCGC00521136-01],,1.22e-05 M,7.96e-06 M,8.28e-06 M,6.84e-06 M,1.17e-05 M,,,
CCCN1C(CC(C)C)=N[S+](=O)([O-])c2cc(NC(=O)c3cc4ncccn4n3)ccc21 [NCGC00521137-01],,1e-05 M,5.97e-06 M,7.38e-06 M,9.29e-06 M,1.04e-05 M,,,
CCCN1C(CC(C)C)=N[S+](=O)([O-])c2cc(N[S+](=O)([O-])c3ccc4ccccc4c3)ccc21 [NCGC00521141-01],,1.26e-05 M,7.1e-06 M,5.32e-06 M,1.12e-05 M,7.1e-07 M,,,
CCCN1C(CC(C)C)=N[S+](=O)([O-])c2cc(NC(=O)c3coc4ccccc34)ccc21 [NCGC00521147-01],,7.38e-06 M,8.43e-06 M,2.24e-06 M,5.64e-06 M,8.93e-06 M,,,
CCCN1C(CC(C)C)=N[S+](=O)([O-])c2cc(NC(=O)c3ncccn3)ccc21 [NCGC00521149-01],,1.12e-05 M,1.59e-05 M,1.19e-05 M,1.04e-05 M,1.42e-05 M,,,
CCCN1C(CC(C)C)=N[S+](=O)([O-])c2cc(NC(=O)c3cc4c(s3)CCC4)ccc21 [NCGC00521150-01],,1.59e-05 M,1.04e-05 M,1.12e-05 M,1.59e-05 M,1.12e-05 M,,,
